Measurements as given in US11034658B2, “Pyridinyl pyrazoles as modulators of RORγT” (Janssen Pharmaceutica NV, priority 2018, dated 2021).

Assays:
[1] = molecular target: full-length human RORγt (GAL4-DBD-RORγt fusion) in HEK293T cells (Homo sapiens (Human), UniProt P51449); assay: RORγt (full-length human) reporter assay, conditions A or B; format: cell-based; settings: for IC50: HEK293T cells, read-out: RORγt (FL) Reporter Assay A or B, IC50; for inhibition at 3 µM / inhibition at 2 µM / inhibition at 6 µM: HEK-293T; for inhibition at 3 µM: 3 μM compound concentration (footnote *); for inhibition at 3 µM / inhibition at 2 µM: read-out: RORγt (FL) Reporter Assay A or B, % inhibition; for inhibition at 2 µM: 2 μM compound concentration; for inhibition at 6 µM: 6 μM compound, read-out: RORγt (FL) Reporter Assay A or B, % inhibition @ 6 μM
Method in brief: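 HEK293T cells expressing GAL4-DBD-RORγt fusion (96- or 384-well formats, DMEM/10% FBS) exposed to compound overnight (16–20 h). Firefly luciferase normalized to DMSO and saturating reference compound, then to Renilla; IC50 from dose curve, % inhibition versus DMSO.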

[2] = system: IL-17 production by human CD4+ T cells under Th17 differentiation; assay: Human Th17 assay (IL-17 production by CD4 T cells); format: cell-based; settings: 72 h, IL-17 after 3 days
From the text: The human Th17 assay tests the effect of RORγt modulatory compounds on IL-17 production by CD4 T cells under conditions which favor Th17 differentiation. Total CD4^+ T cells were isolated from the peripheral blood mononuclear cells (PBMC) of healthy donors using a CD4^+ T cell isolation kit II, following the manufacturer's instructions (Miltenyi Biotec). Cells were resuspended in a medium of RPMI-1640 supplemented with 10% fetal bovine serum, penicillin, streptomycin, glutamate, and β-mercaptoethanol and were added to 96-well plates at 1.5×10^5 per 100 μL per well. 50 μL of compound at titrated concentrations in DMSO were added into each well at final DMSO concentration at 0.2%. Cells were incubated for 1 hour, then 50 μL of Th17 cell differentiation medium was added to each well. The final concentrations of antibodies and cytokines (R&D Systems) in differentiation medium were: 3×10^6/mL anti-CD3/CD28 beads (prepared using human T cell activation/expansion kit, Miltenyi Biotec), 10 μg/mL anti-IL4, 10 μg/mL anti-IFNγ, 10 ng/mL IL1β, 10 ng/mL IL23, 50 ng/mL IL6, 3 ng/mL TGFβ and 20 U/mL IL2. Cells were cultured at 37° C. and 5% CO2 for 3 days. Supernatants were collected and the accumulated IL-17 in culture was measured by using MULTI-SPOT® Cytokine Plate following manufacture's instruction (Meso Scale Discovery). The plate was read using Sector Imager 6000, and IL-17 concentration was extrapolated from the standard curve. The IC50s were determined by GraphPad.

[3] = molecular target: human RORγt ligand binding domain (RORγt LBD) (Homo sapiens (Human), UniProt P51449); assay: RORγt ThermoFluor assay
[4] = system: Th17-dependent learned helplessness; settings: mice; cited from earlier work
obese diabetic mice = settings: cited from earlier work

Sequence of human RORγt ligand binding domain (RORγt LBD) (P51449 other isoform, or with tags, fused parts or gaps): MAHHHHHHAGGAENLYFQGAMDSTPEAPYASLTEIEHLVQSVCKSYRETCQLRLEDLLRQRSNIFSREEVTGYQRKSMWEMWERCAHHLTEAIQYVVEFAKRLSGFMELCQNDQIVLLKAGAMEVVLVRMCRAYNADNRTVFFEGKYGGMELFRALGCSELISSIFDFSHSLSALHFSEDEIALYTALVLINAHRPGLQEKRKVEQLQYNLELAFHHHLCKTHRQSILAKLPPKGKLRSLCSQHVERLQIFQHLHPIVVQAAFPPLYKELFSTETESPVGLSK
Sequence of full-length human RORγt (GAL4-DBD-RORγt fusion) in HEK293T cells (P51449 other isoform, or with tags, fused parts or gaps): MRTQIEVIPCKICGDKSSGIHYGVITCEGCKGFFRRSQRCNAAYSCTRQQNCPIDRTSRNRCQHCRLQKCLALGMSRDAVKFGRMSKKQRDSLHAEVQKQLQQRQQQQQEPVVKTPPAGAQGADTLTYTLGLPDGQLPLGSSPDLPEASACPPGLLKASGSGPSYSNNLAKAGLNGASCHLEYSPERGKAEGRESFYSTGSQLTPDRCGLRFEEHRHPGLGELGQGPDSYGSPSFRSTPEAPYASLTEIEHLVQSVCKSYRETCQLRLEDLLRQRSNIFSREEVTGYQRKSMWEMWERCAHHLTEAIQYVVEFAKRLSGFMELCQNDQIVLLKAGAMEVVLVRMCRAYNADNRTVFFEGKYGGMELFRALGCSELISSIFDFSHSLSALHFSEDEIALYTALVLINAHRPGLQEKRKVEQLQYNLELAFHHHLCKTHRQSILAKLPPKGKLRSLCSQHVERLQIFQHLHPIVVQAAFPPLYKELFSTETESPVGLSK

| SMILES | IC50 [1] [nM] | inhibition at 3 µM [1] [%] | IC50 [2] [nM] | Kd [3] [nM] | further results |
| --- | --- | --- | --- | --- | --- |
| CCc1cc(C[C@@H](C)C(F)(F)F)ncc1-c1c(Cl)c(C(=O)NC[C@H]2CC[C@H](S(C)(=O)=O)CC2)nn1CC (relative stereo) [Example 57, 4-Chloro-1-ethyl-5-(4-ethyl-6-((R*)-3,3,3-trifluoro-2-methylpropyl)pyridin-3-yl)-N-((1r,4R)-4-(methylsulfonyl)cyclohexyl)methyl)-1H-pyrazole-3-carboxamide] | 340 | 43 | 450 | 20 |  |
| CCn1nc(C(=O)NC[C@H]2CC[C@H](S(C)(=O)=O)CC2)c(Cl)c1-c1cnc(C[C@H](C)C(F)(F)F)cc1OC (single isomer, unassigned) [Example 62, 4-Chloro-1-ethyl-5-(4-methoxy-6-((S*)-3,3,3-trifluoro-2-methylpropyl)pyridin-3-yl)-N-((1r,4r)-4-(methylsulfonyl)cyclohexyl)methyl)-1H-pyrazole-3-carboxamide] | 180 |  | 81 | 17 | inhibition at 2 µM [1]: 89% |
| CCn1nc(C(=O)NC[C@H]2CC[C@H](S(C)(=O)=O)CC2)c(Cl)c1-c1cnc(CC(C)(C)C(F)(F)F)cc1OC(F)F [Example 9, 4-Chloro-5-(4-(difluoromethoxy)-6-(3,3,3-trifluoro-2,2-dimethylpropyl)pyridin-3-yl)-1-ethyl-N-(((1r,4r)-4-(methylsulfonyl)cyclohexyl)methyl)-1H-pyrazole-3-carboxamide] | 8.1 | 117 | 11 | 0.75 |  |
| CCn1nc(C(=O)NC[C@]2(O)CC[C@@H](S(C)(=O)=O)CC2)c(Cl)c1-c1cnc(CC(C)(C)C(F)(F)F)cc1OC(F)F [Example 10, 4-Chloro-5-(4-(difluoromethoxy)-6-(3,3,3-trifluoro-2,2-dimethylpropyl)pyridin-3-yl)-1-ethyl-N-(((1s,4s)-1-hydroxy-4-(methylsulfonyl)cyclohexyl)methyl)-1H-pyrazole-3-carboxamide] | 14 | 98 | 48 | 3.2 |  |
| CCn1nc(C(=O)NC[C@H]2CC[C@H](S(C)(=O)=O)CC2)c(Cl)c1-c1cnc(O[C@@H](C)C(F)(F)F)cc1OC [Example 64] | 280 |  |  | 15 | inhibition at 2 µM [1]: 39% |
| CCn1nc(C(=O)NC[C@H]2CC[C@H](S(C)(=O)=O)CC2)c(Cl)c1-c1cnc(O[C@H](C)C(F)(F)F)cc1OC [Example 65] | 41 |  |  | 12 | inhibition at 2 µM [1]: 75% |
| CC(=O)Nc1nc(C)c(S(=O)(=O)Nc2ccc(C(O)(C(F)(F)F)C(F)(F)F)cc2)s1 [SR1001] |  |  |  |  | Th17-dependent learned helplessness [4]: reduced Th17-dependent learned helplessness |
| CC(=O)N1CCN(Cc2ccc(-c3ccc(C(O)(C(F)(F)F)C(F)(F)F)cc3)cc2)CC1 [SR1555] |  |  |  |  | body weight (obese diabetic mice): reduced body weight; fat mass (obese diabetic mice): significant reduction in fat mass; food intake (obese diabetic mice): modest reduction in food intake; insulin sensitivity (obese diabetic mice): improved insulin sensitivity |

Second part, led by results:

| IC50 [1] [nM] | inhibition at 3 µM [1] [%] | IC50 [2] [nM] | Kd [3] [nM] | SMILES | further results |
| --- | --- | --- | --- | --- | --- |
| > 2900 | 23 | 730 | 43 | CCc1cc(C[C@@H](C)C(F)(F)F)ncc1-c1c(C)c(C(=O)NC[C@H]2CC[C@H](S(C)(=O)=O)CC2)nn1CC (relative stereo) [Example 58, 1-Ethyl-5-(4-ethyl-6-((R*)-3,3,3-trifluoro-2-methylpropyl)pyridin-3-yl)-4-methyl-N-((1r,4R)-4-(methylsulfonyl)cyclohexyl)methyl)-1H-pyrazole-3-carboxamide] |  |
| 2300 | 30 | 370 | 120 | CCc1cc(C[C@@H](C)C(F)(F)F)ncc1-c1c(Cl)c(C(=O)NC[C@]2(O)CC[C@@H](S(C)(=O)=O)CC2)nn1CC (single isomer, unassigned) [Example 56, 4-Chloro-1-ethyl-5-(4-ethyl-6-((R*)-3,3,3-trifluoro-2-methylpropyl)pyridin-3-yl)-N-(((1s,4S)-1-hydroxy-4-(methylsulfonyl)cyclohexyl)methyl)-1H-pyrazole-3-carboxamide] |  |
| 56 | 100 | 51 | 11 | CCn1nc(C(=O)NC[C@]2(O)CC[C@@H](S(C)(=O)=O)CC2)c(C)c1-c1cnc(CC(C)(C)C(F)(F)F)cc1OC(F)F [Example 8, 5-(4-(Difluoromethoxy)-6-(3,3,3-trifluoro-2,2-dimethylpropyl)pyridin-3-yl)-1-ethyl-N-(((1s,4s)-1-hydroxy-4-(methylsulfonyl)cyclohexyl)methyl)-4-methyl-1H-pyrazole-3-carboxamide] |  |
| 11 | 91 | 38 | 2.2 | CCn1nc(C(=O)NC[C@H]2CC[C@H](S(C)(=O)=O)CC2)c(C)c1-c1cnc(CC(C)(C)C(F)(F)F)cc1OC(F)F [Example 13, 5-(4-(Difluoromethoxy)-6-(3,3,3-trifluoro-2,2-dimethylpropyl)pyridin-3-yl)-1-ethyl-4-methyl-N-(((1r,4r)-4-(methylsulfonyl)cyclohexyl)methyl)-1H-pyrazole-3-carboxamide] |  |
| 360 | 39 | 210 | 24 | CCn1nc(C(=O)NC[C@H]2CC[C@H](S(C)(=O)=O)CC2)c(C)c1-c1cnc(CC(C)(C)C(F)(F)F)cc1C(F)F [Example 29, 5-(4-(Difluoromethyl)-6-(3,3,3-trifluoro-2,2-dimethylpropyl)pyridin-3-yl)-1-ethyl-4-methyl-N-(((1r,4r)-4-(methylsulfonyl)cyclohexyl)methyl)-1H-pyrazole-3-carboxamide] |  |
| 21 | 98 | 34 | 3.5 | CCn1nc(C(=O)NC[C@H]2CC[C@H](S(C)(=O)=O)CC2)c(Cl)c1-c1cnc(CC(C)(C)C(F)F)cc1OC(F)F [Example 37, 4-Chloro-5-(6-(3,3-difluoro-2,2-dimethylpropyl)-4-(difluoromethoxy)pyridin-3-yl)-1-ethyl-N-(((1r,4r)-4-(methylsulfonyl)cyclohexyl)methyl)-1H-pyrazole-3-carboxamide] |  |
| 210 | 82 |  | 35 | CCc1cc(CCC(C)(C)C)ncc1-c1c(Cl)c(C(=O)NC[C@]2(O)CC[C@@H](S(C)(=O)=O)CC2)nn1CC [Example 59, 4-Chloro-5-(6-(3,3-dimethylbutyl)-4-ethylpyridin-3-yl)-1-ethyl-N-(((1s,4s)-1-hydroxy-4-(methylsulfonyl)cyclohexyl)methyl)-1H-pyrazole-3-carboxamide] |  |
| 240 |  |  | 11 | CCn1nc(C(=O)NC[C@H]2CC[C@H](S(C)(=O)=O)CC2)c(Cl)c1-c1cnc(CC(C)C(F)(F)F)cc1OC (stereo partly drawn) [Example 60, 4-Chloro-1-ethyl-5-(4-methoxy-6-(3,3,3-trifluoro-2-methylpropyl)pyridin-3-yl)-N-(((1r,4r)-4-(methylsulfonyl)cyclohexyl)methyl)-1H-pyrazole-3-carboxamide] | inhibition at 6 µM [1]: 88% |
| 140 |  |  | 12 | CCn1nc(C(=O)NC[C@]2(O)CC[C@@H](S(C)(=O)=O)CC2)c(Cl)c1-c1cnc(O[C@H](C)C(F)(F)F)cc1OC [Example 63, 4-Chloro-1-ethyl-N-(((1r,4R)-1-hydroxy-4-(methylsulfonyl)cyclohexyl)methyl)-5-(4-methoxy-6-(((R)-1,1,1-trifluoropropan-2-yl)oxy)pyridin-3-yl)-1H-pyrazole-3-carboxamide] | inhibition at 6 µM [1]: 86% |
